From patent US20240165243A1, “EGFR DEGRADERS AND METHODS OF USE” (BeiGene Switzerland GmbH, priority 2021, published 2024)

Legend:
Type in all cases: cell-based
EGFR (Del19/T790M/C797S) [1] = assay: Cell degradation HTRF assay, H1975-clone #28 cells; conditions: H1975-clone #28 (Del19/T790M/C797S) cells, 16 h treatment
Procedure, shortened: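 H1975 clones #25 and #28 were treated 16 h at 37° C, 5% CO2 with 8 doses (top 10 uM, 5-fold dilution) in 0.2% DMSO medium. EGFR in lysates read by HTRF (665/620 nm); degradation % relative to DMSO high control; DC50 from 4-parameter fit, Dmax = maximal degradation.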

EGFR (L858R/T790M/C797S) [2] = molecular target: T1, EGFR (L858R/T790M/C797S) (Homo sapiens, UniProt P00533, C797S/L858R/T790M); assay: Cell degradation HTRF assay, H1975-clone #25 cells; conditions: H1975-clone #25 (L858R/T790M/C797S) cells, 16 h treatment
Protocol: Cell Degradation of Example 124-189
H1975-#28 and H1975-#25 cells are treated with compounds diluted in 0.2% DMSO cell culture medium on day 2, incubate for 16 h, 37° C., 5% CO2. the final concentration of compounds in all assay is start with 10 uM, 5-fold dilution, total 8 doses were included.
(§1) After 16 h treatment, add HTRF lysis buffer to each well; seal the plate and incubate 1 hour at room temperature on a plate shaker; Once the cells are lysed, 16 μL of cell lysate are transferred to a PE 384-well HTRF detection plate; 4 μL of pre-mixed HTRF antibodies are added to each well; Cover the plate with a plate sealer, spin 1000 rpm for 1 min, Incubate overnight at room temperature; Read on BMG PheraStar with HTRF protocol (337 nm-665 nm-620 nm).
The inhibition (degradation) percentage of the compound was calculated by the following equation:
(§2) Inhibition percentage of Compound=100−100×(Signal−low control)/(High control−low control), wherein signal=each test compound group.
(§3) High control=Cell group with added DMSO and without compound, indicating microplate readings without EGFR degradation;
(§4) Dmax is the maximum percentage of inhibition (degradation).
(§5) The IC50 (DC50) value of a compound can be obtained by fitting the following equation
Y=Bottom+(TOP−Bottom)/(1+((IC50/X)^hillslope))
(§6) Wherein, X and Y are known values, and IC50, Hillslope, Top and Bottom are the parameters obtained by fitting with software. Y is the inhibition percentage (calculated from the equation), X is the concentration of the compound; IC50 is the concentration of the compound when the 50% inhibition is reached. The smaller the IC50 value is, the stronger the inhibitory ability of the compound is. Vice versa, the higher the IC50 value is, the weaker the ability the inhibitory ability of the compound is; Hillslope represents the slope of the fitted curve, generally around 1*; Bottom represents the minimum value of the curve obtained by data fitting, which is generally 0%±20%; Top represents the maximum value of the curve obtained by data fitting, which is generally 100%±20%. The experimental data were fitted by calculating and analyzing with Dotmatics data analysis software. When Dmax<50%, DC50 will be automatically assigned as larger than […].

EGFR (Del19/T790M/C797S) [3] = assay: Cell degradation HTRF assay, BaF3-DTC cells; conditions: 16 h treatment; for DC50: HTRF; for DTC Dmax (%): maximum percentage of degradation
Protocol: (§7) Cell Degradation of Example 1-28
(§8) BaF3-LTC (L858R/T790M/C797S) and BaF3-DTC (Del19/T790M/C797S) cells are treated with compounds diluted in 0.2% DMSO cell culture medium and incubate for 16 h, 37° C., 5% CO2. The final concentration of compounds in all assay is start with 10 uM, 4-fold dilution, total 8 doses were included.
as §1, with “nm). The inhibition (degradation) percentage of the compound was calculated by the following equation:” for “nm).”
as §2, §3, §4, §5
(§9) Y=Bottom+(TOP−Bottom)/(1+((C50/X)^hillslope))
as §6, with “000±20%;” for “0%±20%;”

EGFR (L858R/T790M/C797S) [4] = molecular target: T1, EGFR (L858R/T790M/C797S); assay: Cell degradation HTRF assay, BaF3-LTC cells; design: expressed in transfected cells; host or cells: BaF3-LTC; conditions: 16 h treatment; for DC50: HTRF; for Dmax: maximum percentage of degradation
Protocol: as §7, §8
as §1, with “nm). The inhibition (degradation) percentage of the compound was calculated by the following equation:” for “nm).”
as §2, §3, §4, §5, §9
as §6, with “000±20%;” for “0%±20%;”

T1 sequence (P00533 25-1210 T790M/C797S/L858R): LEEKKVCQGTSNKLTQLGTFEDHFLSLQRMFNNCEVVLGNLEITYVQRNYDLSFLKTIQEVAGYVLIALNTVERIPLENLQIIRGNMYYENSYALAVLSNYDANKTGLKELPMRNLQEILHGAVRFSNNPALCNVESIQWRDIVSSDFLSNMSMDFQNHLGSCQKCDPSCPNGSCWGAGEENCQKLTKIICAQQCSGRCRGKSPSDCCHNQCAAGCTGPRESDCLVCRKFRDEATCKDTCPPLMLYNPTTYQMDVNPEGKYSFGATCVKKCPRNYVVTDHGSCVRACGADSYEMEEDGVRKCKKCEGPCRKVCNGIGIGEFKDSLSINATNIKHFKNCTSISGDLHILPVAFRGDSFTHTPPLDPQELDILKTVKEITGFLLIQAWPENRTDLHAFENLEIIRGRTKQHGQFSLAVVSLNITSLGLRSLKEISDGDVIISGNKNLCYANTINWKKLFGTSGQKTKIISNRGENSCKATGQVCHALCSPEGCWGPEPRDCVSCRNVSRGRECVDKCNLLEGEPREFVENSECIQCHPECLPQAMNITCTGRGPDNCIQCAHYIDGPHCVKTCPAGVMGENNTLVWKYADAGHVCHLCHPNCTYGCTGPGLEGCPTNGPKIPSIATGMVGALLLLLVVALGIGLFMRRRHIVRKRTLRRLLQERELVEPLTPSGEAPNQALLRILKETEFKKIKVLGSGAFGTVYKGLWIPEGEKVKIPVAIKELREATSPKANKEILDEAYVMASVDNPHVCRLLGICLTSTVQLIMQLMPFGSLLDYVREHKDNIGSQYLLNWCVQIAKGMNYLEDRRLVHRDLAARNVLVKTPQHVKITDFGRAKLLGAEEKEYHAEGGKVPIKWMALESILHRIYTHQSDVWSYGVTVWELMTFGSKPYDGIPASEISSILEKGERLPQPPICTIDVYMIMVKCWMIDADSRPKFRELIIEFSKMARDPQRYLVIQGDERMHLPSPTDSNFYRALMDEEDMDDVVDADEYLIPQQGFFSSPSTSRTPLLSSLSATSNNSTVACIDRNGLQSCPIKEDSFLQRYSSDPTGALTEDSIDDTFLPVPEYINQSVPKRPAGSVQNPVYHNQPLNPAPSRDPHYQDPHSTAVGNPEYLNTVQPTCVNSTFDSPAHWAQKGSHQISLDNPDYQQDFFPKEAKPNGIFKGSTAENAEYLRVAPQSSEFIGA

Row | SMILES | DC50 (EGFR (Del19/T790M/C797S) [1]; HTRF, read-out: H1975-clone#28 DTC DC50) | H1975-clone#28 DTC Dmax (%) (EGFR (Del19/T790M/C797S) [1]; maximum percentage of degradation) | DC50 (EGFR (L858R/T790M/C797S) [2]; HTRF, read-out: H1975-clone#25 LTC DC50) | Dmax (EGFR (L858R/T790M/C797S) [2]; maximum percentage of degradation, read-out: H1975-clone#25 LTC Dmax (%)) | DC50 (EGFR (Del19/T790M/C797S) [3]) | DTC Dmax (%) (EGFR (Del19/T790M/C797S) [3]) | DC50 (EGFR (L858R/T790M/C797S) [4]) | Dmax (EGFR (L858R/T790M/C797S) [4])
1 | CCOc1cc(N2CCC(N3CCN(CCc4cccc5c4n(C)c(=O)n5C4CCC(=O)NC4=O)CC3)CC2)c(CC)cc1Nc1ncc(Br)c(Nc2cnc3ccc(F)cc3c2P(C)(C)=O)n1 (stereo not shown) [Example 124, 3-(4-(2-(4-(1-(4-((5-bromo-4-((4-(dimethylphosphoryl)-6-fluoroquinolin-3-yl)amino)pyrimidin-2-yl)amino)-5-ethoxy-2-ethylphenyl)piperidin-4-yl)piperazin-1-yl)ethyl)-3-methyl-2-oxo-2,3-dihydro-1H-benzol[d]imidazol-1-yl) piperidine-2,6-dione] | 1.4 nM | 73% | 3.4 nM | 77% | – | – | – | –
2 | CCc1cc(Nc2ncc(Br)c(Nc3cnc4ccccc4c3P(C)(C)=O)n2)c(OC)cc1N1CCC(N2CCN(CCC3CCN(c4cc(F)c(C5CCC(=O)NC5=O)c(F)c4)CC3)CC2)CC1 (stereo not shown) [Example 1, 3-(4-(4-(2-(4-(1-(4-((5-bromo-4-((4-(dimethylphosphoryl)quinolin-3-yl)amino)pyrimidin-2-yl)amino)-2-ethyl-5-methoxyphenyl)piperidin-4-yl)piperazin-1-yl)ethyl)piperidin-1-yl)-2,6-difluorophenyl)piperidine-2,6-dione] | – | – | – | – | 10.4 nM | 96.55% | 25 nM | 90.7%
3 | CCc1cc(Nc2ncc(Br)c(Nc3cnc4ccccc4c3P(C)(C)=O)n2)c(OC)cc1N1CCC(N2CCN(CCc3cccc4nn(C5CCC(=O)NC5=O)cc34)CC2)CC1 (stereo not shown) [Example 14, 3-(4-(2-(4-(1-(4-((5-bromo-4-((4-(dimethylphosphoryl)quinolin-3-yl)amino)pyrimidin-2-yl)amino)-2-ethyl-5-methoxyphenyl)piperidin-4-yl)piperazin-1-yl)ethyl)-2H-indazol-2-yl)piperidine-2,6-dione] | – | – | – | – | 186 nM | 81.73% | 546 nM | 84.6%
4 | CCc1cc(Nc2ncc(Br)c(Nc3cnc4cccnc4c3P(C)(C)=O)n2)c(OC)cc1N1CCC(N2CCN(CCC3CCN(c4cc(F)c(C5CCC(=O)NC5=O)c(F)c4)CC3)CC2)CC1 (stereo not shown) [Example 9, 3-(4-(4-(2-(4-(1-(4-((5-bromo-4-((4-(dimethylphosphoryl)-1,5-naphthyridin-3-yl)amino)pyrimidin-2-yl)amino)-2-ethyl-5-methoxyphenyl)piperidin-4-yl)piperazin-1-yl)ethyl)piperidin-1-yl)-2,6-difluorophenyl)piperidine-2,6-dione] | – | – | – | – | 12.7 nM | 96.14% | 29.3 nM | 88%
5 | CCc1cc(Nc2ncc(Br)c(Nc3cnc4ccccc4c3P(C)(C)=O)n2)c(OC)cc1N1CCC(N2CCN(C[C@H]3CCN(c4ccc5c(c4)CN(C4CCC(=O)NC4=O)C5=O)C3)CC2)CC1 (stereo partly drawn) [Example 4, 3-(5-((R)-3-((4-(1-(4-((5-bromo-4-((4-(dimethylphosphoryl)quinolin-3-yl)amino)pyrimidin-2-yl)amino)-2-ethyl-5-methoxyphenyl)piperidin-4-yl)piperazin-1-yl)methyl)pyrrolidin-1-yl)-1-oxoisoindolin-2-yl)piperidine-2,6-dione] | – | – | – | – | 3.94 nM | 91.36% | 7.75 nM | 90.5%
6 | CCc1cc(Nc2ncc(Br)c(Nc3cnc4ccccc4c3P(C)(C)=O)n2)c(OC)cc1N1CCC(N2CCN(C(=O)C3CCN(c4ccc5c(c4)n(C)c(=O)n5C4CCC(=O)NC4=O)CC3)CC2)CC1 (stereo not shown) [Example 15, 3-(5-(4-(4-(1-(4-((5-bromo-4-((4-(dimethylphosphoryl)quinolin-3-yl)amino)pyrimidin-2-yl)amino)-2-ethyl-5-methoxyphenyl)piperidin-4-yl)piperazine-1-carbonyl)piperidin-1-yl)-3-methyl-2-oxo-2,3-dihydro-1H-benzo[d]imidazol-1-yl)piperidine-2,6-dione] | – | – | – | – | 1.23 nM | 94.57% | 3.23 nM | 86.4%
7 | CCc1cc(Nc2ncc(Br)c(Nc3cnc4ccccc4c3P(C)(C)=O)n2)c(OC)cc1N1CCC(N2CCN(C(=O)[C@H]3C[C@H](N(C)c4cc(F)c(C5CCC(=O)NC5=O)c(F)c4)C3)CC2)CC1 (stereo partly shown) [Example 18, 3-(4-(((1r,3r)-3-(4-(1-(4-((5-bromo-4-((4-(dimethylphosphoryl)quinolin-3-yl)amino)pyrimidin-2-yl)amino)-2-ethyl-5-methoxyphenyl)piperidin-4-yl)piperazine-1-carbonyl)cyclobutyl)(methyl)amino)-2,6-difluorophenyl)piperidine-2,6-dione] | – | – | – | – | 3.95 nM | 97.59% | 14.6 nM | 90.7%
8 | CCc1cc(Nc2ncc(Br)c(Nc3cnc4ccccc4c3P(C)(C)=O)n2)c(OC)cc1N1CCC(N2CCN(C(=O)C3CC4(CC(Nc5cc(F)c(C6CCC(=O)NC6=O)c(F)c5)C4)C3)CC2)CC1 (stereo not shown) [Example 23, 3-(4-((6-(4-(1-(4-((5-bromo-4-((4-(dimethylphosphoryl)quinolin-3-yl)amino)pyrimidin-2-yl)amino)-2-ethyl-5-methoxyphenyl)piperidin-4-yl)piperazine-1-carbonyl)spiro[3.3]heptan-2-yl)amino)-2,6-difluorophenyl)piperidine-2,6-dione] | – | – | – | – | 2.22 nM | 94.5% | 11.1 nM | 88.6%
9 | CCc1cc(Nc2ncc(Br)c(Nc3cnc4cnccc4c3P(C)(C)=O)n2)c(OC)cc1N1CCC(N2CCN(CCc3cc(F)c(C4CCC(=O)NC4=O)c(F)c3)CC2)CC1 (stereo not shown) [Example 28, 3-(4-(2-(4-(1-(4-((5-bromo-4-((4-(dimethylphosphoryl)-1,7-naphthyridin-3-yl)amino)pyrimidin-2-yl)amino)-2-ethyl-5-methoxyphenyl)piperidin-4-yl)piperazin-1-yl)ethyl)-2,6-difluorophenyl)piperidine-2,6-dione] | – | – | – | – | 5.4 nM | 90.9% | 8.95 nM | 81.9%
10 | CCc1cc(Nc2ncc(Br)c(Nc3cnc4ccccc4c3P(C)(C)=O)n2)c(OC)cc1N1CCC(N2CCN(C(=O)C3CN(c4ccc5c(cnn5C5CCC(=O)NC5=O)c4)C3)CC2)CC1 (stereo not shown) [Example 25, 3-(5-(3-(4-(1-(4-((5-bromo-4-((4-(dimethylphosphoryl)quinolin-3-yl)amino)pyrimidin-2-yl)amino)-2-ethyl-5-methoxyphenyl)piperidin-4-yl)piperazine-1-carbonyl)azetidin-1-yl)-1H-indazol-1-yl)piperidine-2,6-dione] | – | – | – | – | 1.8 nM | 88.68% | 6.77 nM | 85%
